# Source: patent US20260355212A1 (priority 2022, published 2026)
# Read-outs that look alike come from different tables or passages of the source.
# Key:
# [1] = biological target: SARS-CoV-2 Mpro (Severe acute respiratory syndrome coronavirus 2, UniProt P0DTD1); assay: SARS-CoV-2 Mpro enzymatic inhibition assay (fluorescence); type: biochemical
# In short: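 A fluorescence readout (340 nm excitation, 490 nm emission) was taken after the substrate reaction ran 60 min at 30° C. Before substrate addition, E. coli-expressed protease and compound (3-fold dilutions, 10 doses, duplicates) sat together 30 min at room temperature. Percent inhibition was fitted by variable-slope nonlinear regression to give IC50.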
# [2] = biological target: HCoV-229E Mpro (Human coronavirus 229E, UniProt P0C6X1); assay: HCoV-229E Mpro enzymatic inhibition assay (fluorescence); type: biochemical
# Chain of HCoV-229E Mpro (P0C6X1 2966-3267 limits assumed): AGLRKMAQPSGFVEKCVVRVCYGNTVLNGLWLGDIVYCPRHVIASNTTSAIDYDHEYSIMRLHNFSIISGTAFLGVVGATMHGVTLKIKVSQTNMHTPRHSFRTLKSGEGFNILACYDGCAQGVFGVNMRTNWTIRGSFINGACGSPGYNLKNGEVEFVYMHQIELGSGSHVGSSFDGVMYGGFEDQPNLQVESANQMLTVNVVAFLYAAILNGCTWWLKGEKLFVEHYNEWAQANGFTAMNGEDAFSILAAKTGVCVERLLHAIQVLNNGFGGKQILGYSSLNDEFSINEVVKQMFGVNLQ
# [3] = biological target: HCoV-HKU1 Mpro (Human coronavirus HKU1, UniProt P0C6X2); assay: HCoV-HKU1 Mpro enzymatic inhibition assay (fluorescence); type: biochemical
# Chain of HCoV-HKU1 Mpro (P0C6X2 3335-3637 limits assumed): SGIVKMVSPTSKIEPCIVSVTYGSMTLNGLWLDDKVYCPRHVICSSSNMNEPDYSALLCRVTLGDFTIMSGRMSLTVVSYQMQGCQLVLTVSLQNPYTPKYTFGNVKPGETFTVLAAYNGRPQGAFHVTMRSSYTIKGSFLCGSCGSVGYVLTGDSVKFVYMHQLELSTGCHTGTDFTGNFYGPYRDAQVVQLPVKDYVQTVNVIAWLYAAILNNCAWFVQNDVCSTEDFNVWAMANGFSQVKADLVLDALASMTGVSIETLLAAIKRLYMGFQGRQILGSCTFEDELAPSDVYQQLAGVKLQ
# In short: (§1)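 IC50 values derive from variable-slope nonlinear regression of percent inhibition, each point corrected by a compound-plus-substrate background well lacking enzyme. Enzyme, pre-incubated 30 min at room temperature with inhibitor, was given substrate and read fluorimetrically (Ex/Em 340/490 nm) after 60 min at 30 °C.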
# [4] = biological target: MERS Mpro (Middle East respiratory syndrome-related coronavirus, UniProt K9N7C7); assay: biochemical; parameters: species or system MERS-CoV
# Chain of MERS Mpro (K9N7C7 3248-3553 limits assumed): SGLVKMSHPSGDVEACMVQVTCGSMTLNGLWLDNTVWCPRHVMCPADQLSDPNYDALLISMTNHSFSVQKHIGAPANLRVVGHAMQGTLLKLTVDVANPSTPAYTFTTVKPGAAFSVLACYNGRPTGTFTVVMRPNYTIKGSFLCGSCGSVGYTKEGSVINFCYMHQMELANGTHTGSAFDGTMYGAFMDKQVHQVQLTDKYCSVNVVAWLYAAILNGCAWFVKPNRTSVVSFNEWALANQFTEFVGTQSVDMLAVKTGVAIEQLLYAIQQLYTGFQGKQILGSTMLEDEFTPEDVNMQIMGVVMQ
# [5] = biological target: HCoV-NL63 Mpro (Human coronavirus NL63, UniProt P0C6X5); assay: HCoV-NL63 Mpro enzymatic inhibition assay (fluorescence); type: biochemical
# Chain of HCoV-NL63 Mpro (P0C6X5 2940-3242 limits assumed): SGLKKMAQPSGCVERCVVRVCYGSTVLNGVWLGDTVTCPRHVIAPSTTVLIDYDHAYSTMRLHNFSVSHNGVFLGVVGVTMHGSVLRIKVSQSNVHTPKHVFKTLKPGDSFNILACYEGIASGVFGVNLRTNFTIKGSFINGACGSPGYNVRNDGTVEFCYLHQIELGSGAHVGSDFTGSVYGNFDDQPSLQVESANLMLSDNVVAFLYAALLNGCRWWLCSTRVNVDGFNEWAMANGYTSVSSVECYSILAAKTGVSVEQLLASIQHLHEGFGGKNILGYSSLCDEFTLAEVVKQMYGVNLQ
# In short: as §1
# [6] = biological target: HCoV-OC43 Mpro (Human coronavirus OC43, UniProt P0C6X6); assay: HCoV-OC43 Mpro enzymatic inhibition assay (fluorescence); type: biochemical
# Chain of HCoV-OC43 Mpro (P0C6X6 3247-3549 limits assumed): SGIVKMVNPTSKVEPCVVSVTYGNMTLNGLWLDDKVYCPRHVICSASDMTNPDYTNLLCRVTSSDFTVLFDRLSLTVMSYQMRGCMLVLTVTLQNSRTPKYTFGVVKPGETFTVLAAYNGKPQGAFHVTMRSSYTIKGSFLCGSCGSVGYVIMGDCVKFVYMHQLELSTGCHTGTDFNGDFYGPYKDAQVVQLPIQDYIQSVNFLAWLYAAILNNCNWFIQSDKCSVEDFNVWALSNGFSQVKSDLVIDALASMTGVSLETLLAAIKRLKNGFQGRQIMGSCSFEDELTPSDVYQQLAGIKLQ
# In short: as §1
# [7] = biological target: SARS-CoV-1 Mpro (Severe acute respiratory syndrome coronavirus, UniProt P0C6X7); assay: biochemical
# [8] = mean, 25 nM protein, 25 μM substrate, 30 min pre-incubation, 60 min at 30° C., read-out: Mpro_SARS-CoV-2 mean IC50
Compound,"IC50 [1, 8]",IC50 [2],IC50 [3],IC50 [4],IC50 [5],IC50 [6],IC50 [7],IC50 [1]
"Cc1cccc2[nH]c(C(=O)N3C[C@H]4[C@@H]([C@H]3C(=O)N[C@H](C=O)C[C@@H]3CCNC3=O)C4(C)C)cc12 [Compound 85, (1R,2S,5S)-6,6-Dimethyl-3-(4-methyl-1H-indole-2-carbonyl)-N—((S)-1-oxo-3-((S)-2-oxopyrrolidin-3-yl)propan-2-yl)-3-azabicyclo[3.1.0]hexane-2-carboxamide]",36.7 nM,34.6 nM,23.2 nM,259 nM,53.2 nM,47.9 nM,48.2 nM,
"CC1(C)[C@@H]2[C@@H](C(=O)N[C@H](C#N)C[C@@H]3CCNC3=O)N(C(=O)C3(c4ccccc4)CCCC3)C[C@@H]21 [Compound 136, (1R,2S,5S)—N—((S)-1-Cyano-2-((S)-2-oxopyrrolidin-3-yl)ethyl)-6,6-dimethyl-3-(1-phenylcyclopentanecarbonyl)-3-azabicyclo[3.1.0]hexane-2-carboxamide]",,3050 nM,1630 nM,8410 nM,13900 nM,3980 nM,767 nM,470 nM
"CC1(C)[C@@H]2[C@@H](C(=O)N[C@H](C=O)C[C@@H]3CCNC3=O)N(C(=O)c3cc4cc5c(cc4[nH]3)OCO5)C[C@@H]21 [Compound 27, (1R,2S,5S)-3-(5H-[1,3]dioxolo[4,5-f]indole-6-carbonyl)-6,6-dimethyl-N—((S)-1-oxo-3-((S)-2-oxopyrrolidin-3-yl)propan-2-yl)-3-azabicyclo[3.1.0]hexane-2-carboxamide]",,54.7 nM,49 nM,466 nM,82.8 nM,89.2 nM,52.8 nM,17.2 nM
"Cc1ccc2[nH]c(C(=O)N3C[C@H]4[C@@H]([C@H]3C(=O)N[C@H](C=O)C[C@@H]3CCNC3=O)C4(C)C)cc2c1 [Compound 93, (1R,2S,5S)-6,6-Dimethyl-3-(5-methyl-1H-indole-2-carbonyl)-N—((S)-1-oxo-3-((S)-2-oxopyrrolidin-3-yl)propan-2-yl)-3-azabicyclo[3.1.0]hexane-2-carboxamide]",,32.9 nM,24 nM,317 nM,53.2 nM,55.1 nM,73.2 nM,45.1 nM
"CC1(C)[C@@H]2[C@@H](C(=O)N[C@H](C=O)C[C@@H]3CCNC3=O)N(C(=O)C3(c4cccc(Cl)c4)CC3)C[C@@H]21 [Compound 8, (1R,2S,5S)-3-(1-(3-chlorophenyl)cyclopropanecarbonyl)-6,6-dimethyl-N—((S)-1-oxo-3-((S)-2-oxopyrrolidin-3-yl)propan-2-yl)-3-azabicyclo[3.1.0]hexane-2-carboxamide]",,21.8 nM,7.74 nM,88.7 nM,37.6 nM,18.9 nM,11.9 nM,11.3 nM
"CC1(C)[C@@H]2[C@@H](C(=O)N[C@H](C=O)C[C@@H]3CCNC3=O)N(C(=O)C3CCCC3)C[C@@H]21 [Compound 124, (1R,2S,5S)-3-(Cyclopentanecarbonyl)-6,6-dimethyl-N—((S)-1-oxo-3-((S)-2-oxopyrrolidin-3-yl)propan-2-yl)-3-azabicyclo[3.1.0]hexane-2-carboxamide]",211 nM,162 nM,407 nM,2000 nM,2500 nM,490 nM,473 nM,
"CC1CC(C(=O)N2C[C@H]3[C@@H]([C@H]2C(=O)N[C@H](C=O)C[C@@H]2CCNC2=O)C3(C)C)C1 (stereo partly drawn) [Compound 110, (1R,2S,5S)-6,6-Dimethyl-3-(3-methylcyclobutanecarbonyl)-N—((S)-1-oxo-3-((S)-2-oxopyrrolidin-3-yl)propan-2-yl)-3-azabicyclo[3.1.0]hexane-2-carboxamide]",82.2 nM,105 nM,230 nM,1160 nM,1590 nM,318 nM,205 nM,
